Patent US20230174488A1 (priority 2020, published 2023)

target: SARS-CoV-2 M^PRO (Severe acute respiratory syndrome coronavirus 2, UniProt P0DTD1); experiment: biochemical; assay type: biochemical; conditions: In vitro potency data; 30 min pre-incubation, 25 nM M^pro, 25 µM substrate; listed as INSCoV-601R(lB); read-out: IC50

Row | SMILES | IC50
1 | O=C(NC1CCOC1)[C@H](c1cncnc1)N(C(=O)CCl)c1ccc(-c2cncs2)cc1 (some centres unmarked) [INSCoV-601R(1B)] | 440 nM

same assay, conditions: In vitro potency data; 30 min pre-incubation, 25 nM M^pro, 25 µM substrate; read-out: IC50

Row | SMILES | IC50
2 | CC(C(=O)NC1CCC(F)(F)CC1)(c1cncnc1)N(C(=O)CCl)c1ccc(-c2ccno2)cc1 (centres unmarked) [INSCoV-601P, 2-(2-Chloro-N-(4-(isoxazol-5-yl)phenyl)acetamido)-N-(4,4-difluorocyclohexyl)-2-(pyrimidin-5-yl)propanamide] | 380 nM
3 | O=C(NC1CCCCC1)C(c1cccnc1)N(CCc1cccc(Cl)c1)C(=O)CCl (centres unmarked) [INSCoV-503E] | 660 nM
4 | CC(C(=O)NC1CCC(F)(F)CC1)(c1cnccn1)N(C(=O)CCl)c1ccc(-c2ccns2)cc1 (single isomer, unassigned) [INSCoV-601N(1), 2-(2-Chloro-N-(4-(isothiazol-5-yl)phenyl)acetamido)-N-(4,4-difluorocyclohexyl)-2-(pyrazin-2-yl)propanamide] | 130 nM
5 | CC(C)(C)c1ccc(N(C(=O)CCl)C(C(=O)NC2CCCCC2)c2cncc(C#N)c2)cc1 (centres unmarked) [INSCoV-539, N-(4-(Tert-Butyl)Phenyl)-2-Chloro-N-(1-(5-Cyanopyridin-3-yl)-2-(Cyclohexylamino)-2-Oxoethyl)Acetamide] | 800 nM
6 | CC(C(=O)NC1CCC(F)(F)CC1)(c1cnccn1)N(C(=O)CCl)c1ccc(-c2ccns2)cc1 (single isomer, unassigned) [INSCoV-601N(2), 2-(2-Chloro-N-(4-(isothiazol-5-yl)phenyl)acetamido)-N-(4,4-difluorocyclohexyl)-2-(pyrazin-2-yl)propanamide] | 3490 nM
7 | O=C(NC1CCS(=O)(=O)CC1)C(c1cncnc1)N(C(=O)CCl)c1ccc(-c2cnco2)cc1 (centres unmarked) [INSCoV-501B, 2-Chloro-N-(2-((1,1-Dioxidotetrahydro-2H-Thiopyran-4-yl)Amino)-2-Oxo-1-(Pyrimidin-5-yl)Ethyl)-N-(4-(Oxazol-5-yl)Phenyl)Acetamide] | 600 nM
8 | O=C(NC1CCC(F)(F)C1)C(c1cncnc1)N(C(=O)CCl)c1ccc(-c2cnco2)cc1 (centres unmarked) [INSCoV-600B, 2-(N-(2-chloroacetyl)-4-oxazol-5-yl-anilino)-N-(3,3-difluorocyclopentyl)-2-pyrimidin-5-yl-acetamide] | 290 nM
9 | CC1(C)OCc2cc(N(C(=O)CCl)C(C(=O)Nc3cncc4ccccc34)c3ccno3)cnc21 (centres unmarked) [INSCoV-704] | 19400 nM
10 | O=C(NC1CCCCC1)C(c1cccnc1)N(CCc1ccccc1)C(=O)CCl (centres unmarked) [INSCoV-503] | 980 nM
11 | O=C(N[C@H]1CCOC1)C(c1cnccn1)N(C(=O)CCl)c1ccc(-c2ccno2)cc1 (mixture of isomers) [INSCoV-601Q, 2-Chloro-N-(4-(isoxazol-5-yl)phenyl)-N-(2-oxo-1-(pyrazin-2-yl)-2-(((S)-tetrahydrofuran-3-yl)amino)ethyl)acetamid] | 150 nM
12 | N#Cc1cc(OC(F)(F)F)ccc1N(C(=O)CCl)[C@H](C(=O)NC1CCCCC1)c1cccnc1 [INSCoV-517(2)] | 1940 nM
13 | CC(C)(C)c1ccc(N(C(=O)CCl)[C@@](C)(C(=O)NC2CCCCC2)c2cccnc2)cc1 [INSCoV-538A(1)] | 230 nM
14 | N#Cc1cc(OC(F)(F)F)ccc1N(C(=O)C(F)Cl)C(C(=O)NC1CCC(F)(F)CC1)c1cncnc1 (single isomer, unassigned) [INSCoV-517C(1), 2-Chloro-N-(2-cyano-4-(trifluoromethoxy)phenyl)-N-(2-((4,4-difluorocyclohexyl)amino)-2-oxo-1-(pyrimidin-5-yl)ethyl)-2-fluoroacetamide] | 11200 nM
15 | O=C(NC1CCC(F)(F)CC1)C(c1cncnc1)N(C(=O)[C@@H]1CO1)c1ccc(-c2cnco2)cc1 (single isomer, unassigned) [INSCoV-600R(2A)] | 2930 nM
16 | O=C(NC1CCCCC1)C(c1cccnc1)N(C(=O)CCl)c1ccc(N2CCCC2)cc1 (centres unmarked) [INSCoV-523] | 980 nM
17 | O=C(NC1CCCCC1)C(c1cncnc1)N(C(=O)CCl)c1ccc(-c2cnco2)cc1 (centres unmarked) [INSCoV-501A, 2-Chloro-N-(2-(Cyclohexylamino)-2-oxo-1-(Pyrimidin-5-yl)Ethyl)-N-(4-(Oxazol-5-yl)Phenyl)Acetamide] | 290 nM
18 | N#Cc1cc(OC(F)(F)F)ccc1N(C(=O)CCl)C(C(=O)NC1CCC(F)(F)CC1)c1cnccn1 (centres unmarked) [INSCoV-517B] | 170 nM

Row | SMILES | IC50
19 | O=C(NC1CCC(F)(F)CC1)C(c1cncnc1)N(C(=O)CCl)c1ccc(-c2ccno2)cc1 (centres unmarked) [INSCoV-600J, 2-Chloro-N-(2-((4,4-difluorocyclohexyl)amino)-2-oxo-1-(pyrimidin-5-yl)ethyl)-N-(4-(isoxazol-5-yl)phenyl)acetamide] | 110 nM
20 | O=C(NC1CCC(F)(F)CC1)C(c1cncnc1)N(C(=O)C(F)Cl)c1ccc(-c2cncs2)cc1 (centres unmarked) [INSCoV-614, 2-Chloro-N-(2-((4,4-difluorocyclohexyl)amino)-2-oxo-1-(pyrimidin-5-yl)ethyl)-2-fluoro-N-(4-(thiazol-5-yl)phenyl)acetamide] | 330 nM
21 | O=C(NC1CCC(F)(F)CC1)C(c1cnccn1)N(C(=O)CCl)c1ccc(-c2cncs2)cc1 (single isomer, unassigned) [INSCoV-601G(1), 2-Chloro-N-(2-((4,4-difluorocyclohexyl)amino)-2-oxo-1-(pyrazin-2-yl)ethyl)-N-(4-(thiazol-5-yl)phenyl)acetamide] | 60 nM
22 | O=C(NC1CCC(F)(F)CC1)C(c1cncnc1)N(C(=O)C1CO1)c1ccc(-c2cnco2)cc1 (centres unmarked) [INSCoV-600R] | 12800 nM
23 | COc1ccccc1CN(C(=O)CCl)C(C(=O)NC1CCCCC1)c1cccnc1 (centres unmarked) [INSCoV-505] | 8650 nM
24 | O=C(NC1CCC(F)(F)CC1)[C@H](c1ccnnc1)N(C(=O)CCl)c1ccc(-c2ccns2)cc1 [INSCoV-601J(2)] | 530 nM
25 | CC(=O)c1ccc(NC(=O)[C@@H](c2cnccn2)N(C(=O)CCl)c2ccc(-c3ccns3)cc2)[nH]1 [INSCoV-601M] | 1150 nM
26 | O=C(NC1CCCCC1)C(c1cccnc1)N(Cc1ccccc1C(F)(F)F)C(=O)CCl (centres unmarked) [INSCoV-574A, 2-Chloro-N-(2-(Cyclohexylamino)-2-Oxo-1-(Pyridin-3-yl)Ethyl)-N-(2-(Trifluoromethyl)Benzyl)Acetamide] | 4970 nM
27 | O=C(N[C@@H]1CCOC1)C(c1cncnc1)N(C(=O)CCl)c1ccc(-c2cnco2)cc1 (some centres unmarked) [INSCoV-600C(2)] | 200 nM
28 | Cc1ccc(CN(C(=O)CCl)C(C(=O)NC2CCCCC2)c2cccnc2)cc1 (centres unmarked) [INSCoV-502] | 4820 nM
29 | O=C(NC1CCOC1)C(c1cncnc1)N(C(=O)CCl)c1ccc(-c2cnco2)cc1 (centres unmarked) [INSCoV-600C] | 220 nM
30 | O=C(N[C@H]1CCC(F)(F)C1)C(c1cncnc1)N(C(=O)CCl)c1ccc(-c2cncs2)cc1 (single isomer, unassigned) [INSCoV-601S(1B)] | 980 nM
31 | O=C(NC1CCC(F)(F)CC1)[C@@H](c1cncnc1)N(C(=O)CCl)c1ccc(-c2ccns2)cc1 | 60 nM
32 | O=C(NC1CCC(F)(F)CC1)C(c1cncnc1)N(C(=O)CF)c1ccc(-c2cncs2)cc1 (centres unmarked) [INSCoV-615] | 11400 nM
33 | N#Cc1cc(OC(F)(F)F)ccc1N(C(=O)CCl)[C@@H](C(=O)NC1CCCCC1)c1cccnc1 [INSCoV-517(1)] | 80 nM
34 | O=C(NCCc1ccccc1)C(c1cnccn1)N(C(=O)CCl)c1ccc(-c2cnco2)cc1 (centres unmarked) [INSCoV-501P, 2-Chloro-N-(4-(Oxazol-5-vl)Phenyl)-N-(2-Oxo-2-(Phenethylamino)-1-(Pyrazin-2-yl)Ethyl)Acetamide] | 560 nM
35 | O=C(NC1CCC(F)(F)CC1)[C@H](c1cncnc1)N(CCc1cccc(F)c1)C(=O)C1CO1 (some centres unmarked) [INSCoV-600Q(1)] | 22600 nM
